ChEMBL document CHEMBL1201862, “PubChem BioAssay data set” (2004)
Calls of active or inactive are those of the source.

What was measured:
[1] = intracellular Trypanosoma cruzi inhibitors in host cells – cell-based, plate reader, cherry-pick samples, set 3, dose response (AID 651818); type: functional;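 also: compounds incubated with infected cells for about four days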
[2] = Counterscreen for inhibitors of Trypanosoma brucei methionyl tRNA synthetase (MetRS): Luminescence-based cell-based high throughput dose response assay to identify compounds that are cytotoxic to Jurkat human T lymphocyte cells.; type: functional
[3] = target: T1, Sentrin-specific protease 6 (Homo sapiens, UniProt Q9GZR1); type: functional;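 also: Luminescence-based dose-response confirmatory assay of SENP6 inhibition, following up an ultra-high-throughput screen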
T1 sequence (Q9GZR1 whole entry): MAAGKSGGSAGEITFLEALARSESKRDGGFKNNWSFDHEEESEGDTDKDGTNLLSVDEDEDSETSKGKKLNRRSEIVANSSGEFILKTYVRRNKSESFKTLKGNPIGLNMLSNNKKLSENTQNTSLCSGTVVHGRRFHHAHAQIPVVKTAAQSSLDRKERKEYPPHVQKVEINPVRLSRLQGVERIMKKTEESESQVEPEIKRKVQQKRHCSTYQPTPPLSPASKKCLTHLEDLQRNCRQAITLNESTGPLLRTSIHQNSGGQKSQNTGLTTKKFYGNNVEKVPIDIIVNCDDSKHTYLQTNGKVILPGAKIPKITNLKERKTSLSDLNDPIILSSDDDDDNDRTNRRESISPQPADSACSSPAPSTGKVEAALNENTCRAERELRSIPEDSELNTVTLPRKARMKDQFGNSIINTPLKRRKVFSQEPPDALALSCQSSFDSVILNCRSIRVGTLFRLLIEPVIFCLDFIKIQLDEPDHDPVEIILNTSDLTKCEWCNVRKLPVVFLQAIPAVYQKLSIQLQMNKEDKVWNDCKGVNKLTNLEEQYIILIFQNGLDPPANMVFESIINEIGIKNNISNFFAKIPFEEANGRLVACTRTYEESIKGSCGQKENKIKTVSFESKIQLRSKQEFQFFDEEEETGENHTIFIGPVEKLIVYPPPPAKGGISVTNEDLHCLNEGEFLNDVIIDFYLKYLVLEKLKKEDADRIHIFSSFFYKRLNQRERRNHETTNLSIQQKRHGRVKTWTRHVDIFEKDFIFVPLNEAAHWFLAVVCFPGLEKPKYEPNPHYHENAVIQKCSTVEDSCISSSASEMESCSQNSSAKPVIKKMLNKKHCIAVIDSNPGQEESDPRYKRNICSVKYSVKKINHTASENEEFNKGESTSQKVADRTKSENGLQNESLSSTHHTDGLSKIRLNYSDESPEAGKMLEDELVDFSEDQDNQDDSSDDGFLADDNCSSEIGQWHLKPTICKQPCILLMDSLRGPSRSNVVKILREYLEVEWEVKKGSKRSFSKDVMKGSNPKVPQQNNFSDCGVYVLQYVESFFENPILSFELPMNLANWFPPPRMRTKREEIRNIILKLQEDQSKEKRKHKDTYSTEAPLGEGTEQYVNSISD

Caspase-3 = target: T2, Caspase-3 (Homo sapiens, UniProt P42574); type: functional;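 also: Dose-response selectivity test against caspase-3 for candidate inhibitors of sentrin-specific proteases (SENPs)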
T2 sequence (P42574 whole entry): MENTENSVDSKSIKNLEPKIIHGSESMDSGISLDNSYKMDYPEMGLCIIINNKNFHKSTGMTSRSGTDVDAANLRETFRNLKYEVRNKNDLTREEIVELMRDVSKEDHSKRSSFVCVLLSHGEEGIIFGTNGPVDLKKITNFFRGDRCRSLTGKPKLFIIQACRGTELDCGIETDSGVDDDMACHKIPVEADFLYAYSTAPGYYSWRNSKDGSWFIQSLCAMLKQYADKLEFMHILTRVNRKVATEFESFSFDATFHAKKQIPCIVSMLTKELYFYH

[4] = target: T3, Sentrin-specific protease 8 (Homo sapiens, UniProt Q96LD8); type: functional;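 also: luminescence read-out of SENP8 inhibition, dose-response confirmation following an ultra-high-throughput screen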
T3 sequence (Q96LD8 whole entry): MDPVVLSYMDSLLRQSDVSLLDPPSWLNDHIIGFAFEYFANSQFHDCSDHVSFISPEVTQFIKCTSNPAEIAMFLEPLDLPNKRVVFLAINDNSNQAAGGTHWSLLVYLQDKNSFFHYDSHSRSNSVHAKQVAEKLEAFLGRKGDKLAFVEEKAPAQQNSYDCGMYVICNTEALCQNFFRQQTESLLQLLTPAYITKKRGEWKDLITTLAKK

[5] = antiviral protection against BTV-induced cell death – arbovirus, BSR cells, confirmation (AID 1250); type: functional;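 also: protection from viral cytopathic effect measured as cell viability by ATP luminescence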
[6] = target: T4, Sentrin-specific protease 7 (Homo sapiens, UniProt Q9BQF6); type: functional;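 also: Luminescence-based dose-response confirmation of ultra-high-throughput screening hits, measuring inhibition of SENP7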
T4 sequence (Q9BQF6 whole entry): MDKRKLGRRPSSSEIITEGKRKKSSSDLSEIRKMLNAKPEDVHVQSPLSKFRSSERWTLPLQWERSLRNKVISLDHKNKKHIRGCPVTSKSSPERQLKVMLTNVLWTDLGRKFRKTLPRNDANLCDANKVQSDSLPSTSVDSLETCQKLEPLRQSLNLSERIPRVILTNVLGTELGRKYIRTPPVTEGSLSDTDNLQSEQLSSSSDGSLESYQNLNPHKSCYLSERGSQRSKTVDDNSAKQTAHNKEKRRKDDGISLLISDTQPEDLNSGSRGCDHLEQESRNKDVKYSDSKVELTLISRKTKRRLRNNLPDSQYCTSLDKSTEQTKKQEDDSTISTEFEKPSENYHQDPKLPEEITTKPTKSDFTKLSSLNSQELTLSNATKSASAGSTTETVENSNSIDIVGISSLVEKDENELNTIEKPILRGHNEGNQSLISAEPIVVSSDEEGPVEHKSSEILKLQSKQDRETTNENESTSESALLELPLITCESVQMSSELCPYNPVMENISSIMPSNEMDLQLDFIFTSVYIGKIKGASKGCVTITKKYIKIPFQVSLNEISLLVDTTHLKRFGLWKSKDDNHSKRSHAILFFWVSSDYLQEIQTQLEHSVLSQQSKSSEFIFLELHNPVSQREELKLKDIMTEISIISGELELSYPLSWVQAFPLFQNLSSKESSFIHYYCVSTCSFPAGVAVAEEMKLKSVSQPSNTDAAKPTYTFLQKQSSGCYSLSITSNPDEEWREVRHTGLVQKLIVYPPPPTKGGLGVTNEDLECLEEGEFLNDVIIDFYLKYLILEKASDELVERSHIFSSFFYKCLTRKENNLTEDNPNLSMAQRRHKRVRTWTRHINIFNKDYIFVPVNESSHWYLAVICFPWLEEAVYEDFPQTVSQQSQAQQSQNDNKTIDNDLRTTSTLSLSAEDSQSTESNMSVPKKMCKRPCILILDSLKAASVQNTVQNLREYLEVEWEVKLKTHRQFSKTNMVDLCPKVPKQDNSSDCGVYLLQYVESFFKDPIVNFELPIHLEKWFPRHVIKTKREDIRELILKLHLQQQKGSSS

[7] = target: 72 kDa type IV collagenase (Homo sapiens, UniProt P08253); test: Dose Response validation of uHTS RPN11 inhibitor hits using a MMP-2 Fluorescence assay.; type: functional
[8] = target: 26S proteasome non-ATPase regulatory subunit 14 (Homo sapiens, UniProt O00487); test: inhibition of proteasome subunit RPN11 – biochemical, fluorescence polarization, uHTS hits, confirmation (AID 602368); type: functional
Prothrombin = Prothrombin (Bos taurus, UniProt P00735); test: thrombin protease inhibitors – biochemical, fluorescence polarization, uHTS hits, dose response (AID 602369); type: functional
[9] = viability of HCT116 lacking mutant beta-catenin – cell-based, human colon tumor, dose response (AID 1045); type: functional;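 also: HCT116 colon tumor cells with beta catenin knocked out; cells exposed to compound for 60 hours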
[10] = target: Heat shock protein HSP 90-alpha (Homo sapiens, UniProt P07900); type: functional, organism-based
[11] = viability of PTEN-deleted HCT116 cells – cell-based, HCT116 PTEN knockout, dose response (AID 1047); type: functional;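 also: HCT116 colon tumor cells with PTEN knocked out; cells exposed to compound for 60 hours before readout; potency for loss of cell viability measured by luminescence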
[12] = target: T5, Endoribonuclease toxin MazF (Escherichia coli K-12, UniProt P0AE70); test: substrate-only fluorescence increase artefacts – biochemical, single-stranded RNase substrate, counter-screen for MazEF activator project, dose response (AID 588502); type: functional
T5 sequence (P0AE70 whole entry): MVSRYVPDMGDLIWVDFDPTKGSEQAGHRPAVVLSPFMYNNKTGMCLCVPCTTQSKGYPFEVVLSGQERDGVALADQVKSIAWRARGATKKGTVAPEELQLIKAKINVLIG

[13] = target: T6, Heat shock factor protein 1 (Mus musculus, UniProt P38532); test: decrease of HSF1-responsive luciferase luminescence – cell-based, NIH3T3, dose retest, confirmation (AID 2382); type: functional;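 also: NIH3T3 fibroblasts with HSF1-driven luciferase reporter stressed by proteasome inhibitor MG132; luminescence from HSF1-driven luciferase expression after 8 hours of MG132 stress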
T6 sequence (P38532 whole entry): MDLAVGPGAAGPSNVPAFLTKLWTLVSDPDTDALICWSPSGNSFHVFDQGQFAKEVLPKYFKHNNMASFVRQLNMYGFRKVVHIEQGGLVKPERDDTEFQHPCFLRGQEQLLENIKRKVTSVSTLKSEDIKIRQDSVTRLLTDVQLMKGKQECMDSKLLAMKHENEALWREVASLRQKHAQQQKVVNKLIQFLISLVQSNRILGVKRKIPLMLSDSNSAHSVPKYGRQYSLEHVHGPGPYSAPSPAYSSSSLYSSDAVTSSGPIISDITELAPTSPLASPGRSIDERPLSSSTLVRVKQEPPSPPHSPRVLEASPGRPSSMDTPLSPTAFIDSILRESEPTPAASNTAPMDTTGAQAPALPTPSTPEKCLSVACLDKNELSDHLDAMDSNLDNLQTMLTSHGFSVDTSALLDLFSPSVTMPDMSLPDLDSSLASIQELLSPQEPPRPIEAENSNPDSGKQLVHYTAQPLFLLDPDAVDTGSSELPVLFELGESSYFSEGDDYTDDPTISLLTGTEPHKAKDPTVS

[14] = target: T5, Endoribonuclease toxin MazF; test: activation of MazEF endoribonuclease cleavage – biochemical, fluorescence, single-stranded RNA substrate, uHTS hits, dose response (AID 588481); type: functional
cells [15] = type: functional, cell-based
cells [16] = type: functional, cell-based; remark: listed apart in the source
[17] = target: SWI/SNF-related matrix-associated actin-dependent regulator of chromatin subfamily A member 2 (Homo sapiens, UniProt P51531); test: Luminescence-based cell-based high throughput dose response assay to identify activators of the function of SWI/SNF related, matrix associated, actin dependent regulator of chromatin, subfamily a, member 2 (SMARCA2, BRM).; type: functional
[18] = Counterscreen for activators of the function of SWI/SNF related, matrix associated, actin dependent regulator of chromatin, subfamily a, member 2 (SMARCA2, BRM): Luminescence-based cell-based high throughput dose response assay to identify non-selective compounds using the VP16 reporter assay.; type: functional

72 kDa type IV collagenase, sequence (P08253 whole entry): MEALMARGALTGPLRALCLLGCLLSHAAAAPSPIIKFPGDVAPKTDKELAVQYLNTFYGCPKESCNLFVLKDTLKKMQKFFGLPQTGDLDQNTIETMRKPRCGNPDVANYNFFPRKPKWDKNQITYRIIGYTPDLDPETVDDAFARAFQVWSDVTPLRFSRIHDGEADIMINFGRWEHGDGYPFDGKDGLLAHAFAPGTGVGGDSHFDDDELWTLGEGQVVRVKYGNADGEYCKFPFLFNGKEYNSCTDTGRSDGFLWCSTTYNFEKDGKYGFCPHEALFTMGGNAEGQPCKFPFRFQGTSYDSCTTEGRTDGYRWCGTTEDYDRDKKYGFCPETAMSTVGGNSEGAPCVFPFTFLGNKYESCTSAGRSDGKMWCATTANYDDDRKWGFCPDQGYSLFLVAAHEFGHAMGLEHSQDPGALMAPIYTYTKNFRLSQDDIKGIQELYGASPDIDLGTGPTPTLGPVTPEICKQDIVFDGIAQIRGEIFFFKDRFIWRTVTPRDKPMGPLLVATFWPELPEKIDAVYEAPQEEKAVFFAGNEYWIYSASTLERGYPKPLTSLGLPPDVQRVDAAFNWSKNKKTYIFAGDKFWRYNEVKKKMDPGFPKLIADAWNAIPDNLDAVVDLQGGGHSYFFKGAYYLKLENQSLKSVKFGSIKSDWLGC
26S proteasome non-ATPase regulatory subunit 14, sequence (O00487 whole entry): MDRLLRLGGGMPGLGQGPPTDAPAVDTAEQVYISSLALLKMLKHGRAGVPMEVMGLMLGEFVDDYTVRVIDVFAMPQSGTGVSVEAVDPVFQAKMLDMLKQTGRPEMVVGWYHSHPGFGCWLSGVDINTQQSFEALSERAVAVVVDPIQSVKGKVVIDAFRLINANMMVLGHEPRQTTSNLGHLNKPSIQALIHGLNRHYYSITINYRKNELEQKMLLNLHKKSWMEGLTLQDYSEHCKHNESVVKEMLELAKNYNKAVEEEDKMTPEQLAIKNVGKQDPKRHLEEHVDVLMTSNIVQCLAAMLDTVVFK
SWI/SNF-related matrix-associated actin-dependent regulator of chromatin subfamily A member 2, sequence (P51531 whole entry): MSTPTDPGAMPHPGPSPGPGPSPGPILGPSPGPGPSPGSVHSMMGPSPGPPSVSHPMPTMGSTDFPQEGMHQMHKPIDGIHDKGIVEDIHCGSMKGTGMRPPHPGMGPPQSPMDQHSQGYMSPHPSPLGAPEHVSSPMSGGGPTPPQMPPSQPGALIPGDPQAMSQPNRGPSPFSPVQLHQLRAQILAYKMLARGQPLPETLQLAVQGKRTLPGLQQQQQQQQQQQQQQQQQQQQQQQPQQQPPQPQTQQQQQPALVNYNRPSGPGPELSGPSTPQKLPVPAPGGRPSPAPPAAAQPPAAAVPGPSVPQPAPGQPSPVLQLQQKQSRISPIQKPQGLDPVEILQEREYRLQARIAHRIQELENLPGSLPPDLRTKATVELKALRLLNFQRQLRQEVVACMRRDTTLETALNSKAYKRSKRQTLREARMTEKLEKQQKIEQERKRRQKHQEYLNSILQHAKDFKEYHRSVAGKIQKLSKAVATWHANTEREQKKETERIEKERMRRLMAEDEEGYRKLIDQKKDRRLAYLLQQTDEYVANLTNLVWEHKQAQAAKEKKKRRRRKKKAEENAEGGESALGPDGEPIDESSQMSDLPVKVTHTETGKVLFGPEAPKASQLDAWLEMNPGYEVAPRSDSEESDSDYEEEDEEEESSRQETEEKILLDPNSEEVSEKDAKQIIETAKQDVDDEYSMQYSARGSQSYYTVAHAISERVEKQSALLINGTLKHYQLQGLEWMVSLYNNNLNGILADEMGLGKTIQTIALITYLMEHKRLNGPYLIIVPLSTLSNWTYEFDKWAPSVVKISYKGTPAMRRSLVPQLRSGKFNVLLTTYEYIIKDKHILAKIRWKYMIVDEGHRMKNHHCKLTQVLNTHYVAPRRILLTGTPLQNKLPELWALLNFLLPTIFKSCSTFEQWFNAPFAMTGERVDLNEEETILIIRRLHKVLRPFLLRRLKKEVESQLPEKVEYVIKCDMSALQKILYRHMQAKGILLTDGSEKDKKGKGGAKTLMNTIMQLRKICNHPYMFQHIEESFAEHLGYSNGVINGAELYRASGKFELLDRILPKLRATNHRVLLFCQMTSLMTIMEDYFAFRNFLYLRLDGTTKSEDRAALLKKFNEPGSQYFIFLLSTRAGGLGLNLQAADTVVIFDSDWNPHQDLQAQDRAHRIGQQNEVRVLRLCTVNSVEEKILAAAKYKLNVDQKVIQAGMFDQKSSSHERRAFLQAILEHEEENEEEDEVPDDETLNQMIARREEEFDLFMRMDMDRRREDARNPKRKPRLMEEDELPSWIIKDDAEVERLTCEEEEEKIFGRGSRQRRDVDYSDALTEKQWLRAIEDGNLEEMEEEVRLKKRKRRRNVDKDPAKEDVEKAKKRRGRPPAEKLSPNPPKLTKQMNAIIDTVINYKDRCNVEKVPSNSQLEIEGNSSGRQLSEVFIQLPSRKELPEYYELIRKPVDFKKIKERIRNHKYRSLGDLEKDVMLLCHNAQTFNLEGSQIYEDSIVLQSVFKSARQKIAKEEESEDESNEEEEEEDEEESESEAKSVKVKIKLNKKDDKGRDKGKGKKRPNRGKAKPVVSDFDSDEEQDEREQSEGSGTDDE

## C[C@@H]1CN([C@@H](C)CO)C(=O)c2cccc(NC(=O)Nc3ccc(F)cc3)c2O[C@@H]1CN(C)Cc1ccc(-c2ccccc2)cc1
[1]
  AC50: 3.67 µM (active)

## Cc1ccc(C(=O)NN2C(=O)/C(=C/c3nc4ccccc4[nH]3)SC2=S)cc1
[2]
  IC50: 36.7 µM (inactive)

## O=C(Nc1nc2c(s1)CCCC2)c1ccc(Br)s1
[3]
  IC50: 5.95 µM (active)
Caspase-3
  IC50: 24.9 µM (active)
[4]
  IC50: 25.4 µM (active)
[5]
  IC50: 25.7 µM (active)
[6]
  IC50: 4.82 µM (active)

## COc1cccc(-n2c(SCC(N)=O)nc3ccccc3c2=O)c1
[7]
  IC50: > 100 µM (inactive)
[8]
  IC50: 55.9 µM (active)
Prothrombin
  IC50: 58.2 µM (active)

## CCC1C/C(=C\c2cccnc2)C(=O)/C(=C/c2cccnc2)C1 (configuration not stated)
[9]
  EC50: 0.836 µM (active)
[10]
  AC50: 12.7 µM (active)
[11]
  EC50: 1.01 µM (active)

## NC(=O)c1c(NC(=O)C2COc3ccccc3O2)sc2c1CCN(Cc1ccccc1)C2 (configuration not stated)
[12]
  EC50: 85.1 µM (inactive)
[13]
  EC50: > 195 µM (not active)
[14]
  EC50: 12.1 µM (active)

## C/C(=N\NS(=O)(=O)c1ccc([N+](=O)[O-])cc1)c1c[nH]c2ccccc12
[12]
  EC50: > 99 µM (inactive)
[14]
  EC50: 14.9 µM (active)

## COc1ccc(/C=C2\CCc3ccccc3C2=O)cc1OC
[3]
  IC50: 15.8 µM (active)
Caspase-3
  IC50: 27.3 µM (active)
[4]
  IC50: 22.1 µM (active)
[6]
  IC50: 7.94 µM (active)

## O=[N+]([O-])c1ccc(N/N=C/c2ccccc2O)cc1
Cells [15]
  EC50: > 350 µM (not active)
[3]
  IC50: 22.1 µM (active)
Cells [16]
  EC50: 10.4 µM (active)
Caspase-3
  IC50: 31.1 µM (active)
[4]
  IC50: 55.1 µM (active)
[6]
  IC50: 4.9 µM (active)

## C[C@H]1CN([C@@H](C)CO)C(=O)c2cccc(NC(=O)Nc3ccc(C(F)(F)F)cc3)c2O[C@H]1CN(C)Cc1ccc2c(c1)OCO2
[1]
  AC50: 1.77 µM (active)

## C[C@H]1CN([C@@H](C)CO)C(=O)c2cc(NC(=O)Nc3ccc(C(F)(F)F)cc3)ccc2O[C@@H]1CN(C)Cc1ccc(C(F)(F)F)cc1
[1]
  AC50: 3.35 µM (active)

## O=Nc1ccc(NOC(=O)c2ccccc2)cc1
[3]
  IC50: 21.7 µM (active)
Caspase-3
  IC50: 48.4 µM (active)
[4]
  IC50: > 100 µM (inactive)
[6]
  IC50: 8.98 µM (active)

## C[C@H]1CN([C@@H](C)CO)C(=O)c2cccc(NC(=O)CCCCCC(=O)Nc3ccccc3N)c2O[C@H]1CN(C)Cc1ccc(C(F)(F)F)cc1
[1]
  AC50: 3.96 µM (active)

## COc1cccc(/N=C/c2c(O)oc3ccccc3c2=O)c1
[3]
  IC50: > 100 µM (inactive)
Caspase-3
  IC50: > 100 µM (inactive)
[4]
  IC50: > 100 µM (inactive)
[6]
  IC50: 14.2 µM (active)

## COc1cc2[nH]c(=O)n(Cc3ccc(C(=O)NC4CCCC4)cc3)c(=O)c2cc1OC
[12]
  EC50: > 99 µM (inactive)
[14]
  EC50: > 99 µM (inactive)

## O=C1CNC(=S)N1c1nc2ccccc2s1
[17]
  EC50: > 91.2 µM (inactive)
[18]
  EC50: > 91.2 µM (inactive)

## O=C(C1CCN(C2CC(=O)N(c3cccc(Cl)c3)C2=O)CC1)N1CCCC1 (configuration not stated)
[10]
  AC50: 4.21 µM (active)

## N#Cc1c(-c2ccco2)cc(-c2ccc(F)cc2)nc1N
[7]
  IC50: > 100 µM (inactive)
[8]
  IC50: 15.8 µM (active)
Prothrombin
  IC50: 20.9 µM (active)
